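Five concentrations, 48 hours, 96-well plates. Abbreviation: GI50, concentration required for 50% inhibition of growth. TGI denotes the concentration required for complete inhibition of growth.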
Tests used:
Experiment in all cases: NCI tumour cell line growth inhibition, 48 h
OVCAR-4 ovarian = test system: OVCAR-4 ovarian
DU-145 prostate = test system: DU-145 prostate
SNB-19 CNS = test system: SNB-19 CNS
SW-620 colon = test system: SW-620 colon
A549 NSCLC = test system: A549 NSCLC
SK-MEL-28 melanoma = test system: SK-MEL-28 melanoma
UACC-62 melanoma = test system: UACC-62 melanoma
HOP-92 NSCLC = test system: HOP-92 NSCLC
TK-10 renal = test system: TK-10 renal
IGROV1 ovarian = test system: IGROV1 ovarian
SK-MEL-2 melanoma = test system: SK-MEL-2 melanoma
MDA-MB-231 breast = test system: MDA-MB-231 breast
HL-60(TB) leukemia = test system: HL-60(TB) leukemia
NCI-H226 lung = test system: NCI-H226 lung
SF-295 CNS = test system: SF-295 CNS
COLO 205 colon = test system: COLO 205 colon
SNB-75 CNS = test system: SNB-75 CNS
CAKI-1 renal = test system: CAKI-1 renal
KM12 colon = test system: KM12 colon
HS 578T breast = test system: HS 578T breast
M14 melanoma = test system: M14 melanoma
LOX IMVI melanoma = test system: LOX IMVI melanoma
SF-539 CNS = test system: SF-539 CNS
UO-31 renal = test system: UO-31 renal
RPMI-8226 leukemia = test system: RPMI-8226 leukemia
MDA-MB-435 = test system: MDA-MB-435
SK-MEL-5 melanoma = test system: SK-MEL-5 melanoma
MCF7 breast = test system: MCF7 breast
A498 renal = test system: A498 renal
786-0 renal = test system: 786-0 renal
SK-OV-3 ovarian = test system: SK-OV-3 ovarian
PC-3 prostate = test system: PC-3 prostate
UACC-257 melanoma = test system: UACC-257 melanoma
BT-549 breast = test system: BT-549 breast
NCI-H23 lung = test system: NCI-H23 lung
OVCAR-5 ovarian = test system: OVCAR-5 ovarian
RXF 393 renal = test system: RXF 393 renal
EKVX NSCLC = test system: EKVX NSCLC
CCRF-CEM leukemia = test system: CCRF-CEM leukemia
U251 CNS = test system: U251 CNS
OVCAR-3 ovarian = test system: OVCAR-3 ovarian
MOLT-4 leukemia = test system: MOLT-4 leukemia
NCI-H460 lung = test system: NCI-H460 lung
ACHN renal = test system: ACHN renal
OVCAR-8 ovarian = test system: OVCAR-8 ovarian
K-562 leukemia = test system: K-562 leukemia
HCT-116 colon = test system: HCT-116 colon
HT29 colon = test system: HT29 colon
NCI-H522 lung = test system: NCI-H522 lung
SN12C renal = test system: SN12C renal
NCI/ADR-RES ovarian = test system: NCI/ADR-RES ovarian
MALME-3M melanoma = test system: MALME-3M melanoma
SF-268 CNS = test system: SF-268 CNS
HOP-62 NSCLC = test system: HOP-62 NSCLC
HCT-15 colon = test system: HCT-15 colon
T-47D breast = test system: T-47D breast
HCC-2998 colon = test system: HCC-2998 colon

O=S1(=O)N(Cc2ccccc2)[C@@H](Cc2ccccc2)[C@H](O)[C@H](O)[C@H](Cc2ccccc2)N1Cc1ccccc1
GI50 (OVCAR-4 ovarian): 2.72 µM
TGI (OVCAR-4 ovarian): 7.26 µM
GI50 (DU-145 prostate): 3.21 µM
TGI (DU-145 prostate): 7.55 µM
GI50 (SNB-19 CNS): 4.69 µM
TGI (SNB-19 CNS): > 20 µM
GI50 (SW-620 colon): 3.18 µM
TGI (SW-620 colon): 7.12 µM
GI50 (A549 NSCLC): 2.99 µM
TGI (A549 NSCLC): 7.62 µM
GI50 (SK-MEL-28 melanoma): 3.35 µM
TGI (SK-MEL-28 melanoma): 6.9 µM
GI50 (UACC-62 melanoma): 2.86 µM
TGI (UACC-62 melanoma): 6.4 µM
GI50 (HOP-92 NSCLC): 3.15 µM
TGI (HOP-92 NSCLC): 6.68 µM
GI50 (TK-10 renal): 3.77 µM
TGI (TK-10 renal): 8.38 µM
GI50 (IGROV1 ovarian): 3.57 µM
TGI (IGROV1 ovarian): 7.24 µM
GI50 (SK-MEL-2 melanoma): 2.8 µM
TGI (SK-MEL-2 melanoma): 5.76 µM
GI50 (MDA-MB-231 breast): 2.82 µM
TGI (MDA-MB-231 breast): 6.39 µM
GI50 (HL-60(TB) leukemia): 2.97 µM
TGI (HL-60(TB) leukemia): 8.72 µM
GI50 (NCI-H226 lung): 3.04 µM
TGI (NCI-H226 lung): 6.17 µM
GI50 (SF-295 CNS): 2.62 µM
TGI (SF-295 CNS): 5.68 µM
GI50 (COLO 205 colon): 4.26 µM
TGI (COLO 205 colon): 10.4 µM
GI50 (SNB-75 CNS): 2.31 µM
TGI (SNB-75 CNS): 7.28 µM
GI50 (CAKI-1 renal): 3.65 µM
TGI (CAKI-1 renal): 7.33 µM
GI50 (KM12 colon): 2.94 µM
TGI (KM12 colon): 5.84 µM
GI50 (HS 578T breast): 3.27 µM
TGI (HS 578T breast): 8.38 µM
GI50 (M14 melanoma): 3.04 µM
TGI (M14 melanoma): 6.07 µM
GI50 (LOX IMVI melanoma): 3.28 µM
TGI (LOX IMVI melanoma): 7.09 µM
GI50 (SF-539 CNS): 3.37 µM
TGI (SF-539 CNS): 6.76 µM
GI50 (UO-31 renal): 2.73 µM
TGI (UO-31 renal): 5.96 µM
GI50 (RPMI-8226 leukemia): 4.49 µM
TGI (RPMI-8226 leukemia): > 20 µM
GI50 (MDA-MB-435): 3.33 µM
TGI (MDA-MB-435): 7.1 µM
GI50 (SK-MEL-5 melanoma): 3.05 µM
TGI (SK-MEL-5 melanoma): 5.8 µM
GI50 (MCF7 breast): 4.77 µM
TGI (MCF7 breast): 13.6 µM
GI50 (A498 renal): 2.45 µM
TGI (A498 renal): 5.18 µM
GI50 (786-0 renal): 3.24 µM
TGI (786-0 renal): 6.86 µM
GI50 (SK-OV-3 ovarian): 4.15 µM
TGI (SK-OV-3 ovarian): 10.6 µM
GI50 (PC-3 prostate): 3.48 µM
TGI (PC-3 prostate): 10.4 µM
GI50 (UACC-257 melanoma): 2.89 µM
TGI (UACC-257 melanoma): 5.93 µM
GI50 (BT-549 breast): 2.65 µM
TGI (BT-549 breast): 5.53 µM
GI50 (NCI-H23 lung): 3.11 µM
TGI (NCI-H23 lung): 6.71 µM
GI50 (OVCAR-5 ovarian): 3.57 µM
TGI (OVCAR-5 ovarian): 9.1 µM
GI50 (RXF 393 renal): 2.6 µM
TGI (RXF 393 renal): 5.24 µM
GI50 (EKVX NSCLC): 3.43 µM
TGI (EKVX NSCLC): 9.86 µM
GI50 (CCRF-CEM leukemia): 5.96 µM
TGI (CCRF-CEM leukemia): > 20 µM
GI50 (U251 CNS): 3.07 µM
TGI (U251 CNS): 6.47 µM
GI50 (OVCAR-3 ovarian): 2.9 µM
TGI (OVCAR-3 ovarian): 6.07 µM
GI50 (MOLT-4 leukemia): 2.86 µM
TGI (MOLT-4 leukemia): 10.2 µM
GI50 (NCI-H460 lung): 3.41 µM
TGI (NCI-H460 lung): 7.91 µM
GI50 (ACHN renal): 6.01 µM
TGI (ACHN renal): > 20 µM
GI50 (OVCAR-8 ovarian): 4.2 µM
TGI (OVCAR-8 ovarian): 11.2 µM
GI50 (K-562 leukemia): 3.05 µM
TGI (K-562 leukemia): 9.38 µM
GI50 (HCT-116 colon): 2.43 µM
TGI (HCT-116 colon): 5.05 µM
GI50 (HT29 colon): 2.63 µM
TGI (HT29 colon): 5.64 µM
GI50 (NCI-H522 lung): 0.847 µM
TGI (NCI-H522 lung): 4.79 µM
GI50 (SN12C renal): 3.26 µM
TGI (SN12C renal): 7.68 µM
GI50 (NCI/ADR-RES ovarian): 3.4 µM
TGI (NCI/ADR-RES ovarian): 8.58 µM
GI50 (MALME-3M melanoma): 2.75 µM
TGI (MALME-3M melanoma): 6.37 µM
GI50 (SF-268 CNS): 3.44 µM
TGI (SF-268 CNS): 8.03 µM
GI50 (HOP-62 NSCLC): 3.71 µM
TGI (HOP-62 NSCLC): 7.34 µM
GI50 (HCT-15 colon): 4.37 µM
TGI (HCT-15 colon): 18.2 µM
GI50 (T-47D breast): 3.95 µM
TGI (T-47D breast): 10.2 µM
GI50 (HCC-2998 colon): 3.41 µM
TGI (HCC-2998 colon): 6.2 µM

— PubChem BioAssay (NCI)
